According to US7745575B1 (Cellpep Pharma Inc., priority 2004, dated 2010):
Bridge positions count the residues as written; N and C are the ends. Peptide text beside a SMILES is read from it.

Test: toxicity in vivo, LD50 after intracerebroventricular injection
Conditions: mouse, icv or intrathecal, 20 g C57/BL6 mice
Protocol: Groups of six to eight mice per dose were injected with 5 μl peptide solution containing 0.1% (w/v) bovine serum albumin and 0.9% (w/v) NaCl. The LD50 values are set out in Table 5.

SMILES	LD50 [µg/kg]
CC[C@H](C)[C@@H]1NC(=O)[C@H](CCCCN)NC(=O)[C@@H](NC(=O)[C@H](CCCCN)NC(=O)[C@@H](NC(=O)[C@H](CC(N)=O)NC(=O)[C@@H](NC(=O)[C@@H](NC(=O)[C@@H](NC(=O)CN)C(C)C)[C@@H](C)CC)[C@@H](C)CC)C(C)C)CSSC[C@@H]2NC(=O)[C@H](CCCCN)NC(=O)CNC(=O)[C@H](Cc3ccccc3)NC(=O)[C@H](CCCNC(=N)N)NC(=O)[C@H](CCSC)NC(=O)CNC(=O)[C@H](C)NC(=O)[C@H](CC(=O)O)NC(=O)[C@H](CCCCN)NC(=O)[C@@H]3CSSC[C@@H](C(=O)N[C@H](C(=O)N4CCC[C@H]4C(=O)N[C@@H](CCCCN)C(=O)O)[C@@H](C)O)NC(=O)[C@H](Cc4c[nH]cn4)NC(=O)[C@H](CSSC[C@H](NC(=O)[C@H](CCC(N)=O)NC(=O)[C@@H]4CCCN4C(=O)[C@H](CO)NC1=O)C(=O)N[C@@H](CC(C)C)C(=O)N[C@@H](CCCCN)C(=O)N1CCC[C@H]1C(=O)N3)NC(=O)[C@H](CCCCN)NC(=O)CNC(=O)[C@H](CC(N)=O)NC(=O)[C@H](CCSC)NC2=O (H-GVIINVKCKISPQCLKPCKDAGMRFGKCMNGKCHCTPK-OH; disulfide 8-28, 14-33, 18-35)	7.5
CC[C@H](C)[C@@H]1NC(=O)[C@H](CCCCN)NC(=O)[C@@H](NC(=O)[C@H](CCCCN)NC(=O)[C@@H](NC(=O)[C@H](CC(N)=O)NC(=O)[C@@H](NC(=O)[C@@H](NC(=O)[C@@H](N)C(C)C)[C@@H](C)CC)[C@@H](C)CC)C(C)C)CSSC[C@@H]2NC(=O)[C@H](CCCCN)NC(=O)CNC(=O)[C@H](Cc3ccccc3)NC(=O)[C@H](CCCNC(=N)N)NC(=O)[C@H](CCSC)NC(=O)CNC(=O)[C@H](C)NC(=O)[C@H](CC(=O)O)NC(=O)[C@H](CCCCN)NC(=O)[C@@H]3CSSC[C@@H](C(=O)N[C@H](C(=O)N4CCC[C@H]4C(=O)N[C@@H](CCCCN)C(=O)O)[C@@H](C)O)NC(=O)[C@H](Cc4c[nH]cn4)NC(=O)[C@H](CSSC[C@H](NC(=O)[C@H](CCC(N)=O)NC(=O)[C@H](CCCNC(=N)N)NC(=O)[C@H](CO)NC1=O)C(=O)N[C@@H](CC(C)C)C(=O)N[C@@H](CCCCN)C(=O)N1CCC[C@H]1C(=O)N3)NC(=O)[C@H](CCCCN)NC(=O)CNC(=O)[C@H](CC(N)=O)NC(=O)[C@H](CCSC)NC2=O (H-VIINVKCKISRQCLKPCKDAGMRFGKCMNGKCHCTPK-OH; disulfide 7-27, 13-32, 17-34)	3
CC[C@H](C)[C@@H]1NC(=O)[C@H](CCCCN)NC(=O)[C@@H](NC(=O)[C@H](CCCCN)NC(=O)[C@@H](NC(=O)[C@H](CC(N)=O)NC(=O)[C@@H](NC(=O)[C@@H](NC(=O)[C@@H](NC(=O)CN)C(C)C)[C@@H](C)CC)[C@@H](C)CC)C(C)C)CSSC[C@@H]2NC(=O)[C@H](CCCCN)NC(=O)CNC(=O)[C@H](CC(N)=O)NC(=O)[C@H](CCCNC(=N)N)NC(=O)[C@H](CCSC)NC(=O)CNC(=O)[C@H](C)NC(=O)[C@H](CC(=O)O)NC(=O)[C@H](CCCCN)NC(=O)[C@@H]3CSSC[C@@H](C(=O)N[C@H](C(=O)N4CCC[C@H]4C(=O)N[C@@H](CCCCN)C(=O)O)[C@@H](C)O)NC(=O)[C@H](Cc4c[nH]cn4)NC(=O)[C@H](CSSC[C@H](NC(=O)[C@H](CCC(N)=O)NC(=O)[C@H](CCCNC(=N)N)NC(=O)[C@H](CO)NC1=O)C(=O)N[C@@H](CC(C)C)C(=O)N[C@@H](CCCCN)C(=O)N1CCC[C@H]1C(=O)N3)NC(=O)[C@H](CCCCN)NC(=O)CNC(=O)[C@H](CC(N)=O)NC(=O)[C@H](CCSC)NC2=O (H-GVIINVKCKISRQCLKPCKDAGMRNGKCMNGKCHCTPK-OH; disulfide 8-28, 14-33, 18-35)	11.5
CC[C@H](C)[C@@H]1NC(=O)[C@H](CCCCN)NC(=O)[C@@H](N)CSSC[C@@H]2NC(=O)[C@H](CCCCN)NC(=O)CNC(=O)[C@H](Cc3ccccc3)NC(=O)[C@H](CCCNC(=N)N)NC(=O)[C@H](CCSC)NC(=O)CNC(=O)[C@H](C)NC(=O)[C@H](CC(=O)O)NC(=O)[C@H](CCCCN)NC(=O)[C@@H]3CSSC[C@@H](C(=O)N[C@H](C(=O)N4CCC[C@H]4C(=O)N[C@@H](CCCCN)C(=O)O)[C@@H](C)O)NC(=O)[C@H](Cc4c[nH]cn4)NC(=O)[C@H](CSSC[C@H](NC(=O)[C@H](CCC(N)=O)NC(=O)[C@H](CCCNC(=N)N)NC(=O)[C@H](CO)NC1=O)C(=O)N[C@@H](CC(C)C)C(=O)N[C@@H](CCCCN)C(=O)N1CCC[C@H]1C(=O)N3)NC(=O)[C@H](CCCCN)NC(=O)CNC(=O)[C@H](CC(N)=O)NC(=O)[C@H](CCSC)NC2=O (H-CKISRQCLKPCKDAGMRFGKCMNGKCHCTPK-OH; disulfide 1-21, 7-26, 11-28)	15
CC[C@H](C)[C@@H]1NC(=O)[C@H](CCCCN)NC(=O)[C@@H](NC(=O)[C@H](CCCCN)NC(=O)[C@@H](NC(=O)[C@H](CC(N)=O)NC(=O)[C@@H](NC(=O)[C@@H](NC(=O)[C@@H](NC(=O)CN)C(C)C)[C@@H](C)CC)[C@@H](C)CC)C(C)C)CSSC[C@@H]2NC(=O)[C@H](CCCCN)NC(=O)CNC(=O)[C@H](Cc3ccccc3)NC(=O)[C@H](CCCNC(=N)N)NC(=O)[C@H](CCSC)NC(=O)CNC(=O)[C@H](C)NC(=O)[C@H](CC(=O)O)NC(=O)[C@H](CCCCN)NC(=O)[C@@H]3CSSC[C@@H](C(=O)O)NC(=O)[C@H](Cc4c[nH]cn4)NC(=O)[C@H](CSSC[C@H](NC(=O)[C@H](CCC(N)=O)NC(=O)[C@H](CCCNC(=N)N)NC(=O)[C@H](CO)NC1=O)C(=O)N[C@@H](CC(C)C)C(=O)N[C@@H](CCCCN)C(=O)N1CCC[C@H]1C(=O)N3)NC(=O)[C@H](CCCCN)NC(=O)CNC(=O)[C@H](CC(N)=O)NC(=O)[C@H](CCSC)NC2=O (H-GVIINVKCKISRQCLKPCKDAGMRFGKCMNGKCHC-OH; disulfide 8-28, 14-33, 18-35)	800
CC[C@H](C)[C@@H]1NC(=O)[C@H](CCCCN)NC(=O)[C@@H](NC(=O)[C@H](CCCCN)NC(=O)[C@@H](NC(=O)[C@H](CC(N)=O)NC(=O)[C@@H](NC(=O)[C@@H](NC(=O)[C@@H](NC(=O)CN)C(C)C)[C@@H](C)CC)[C@@H](C)CC)C(C)C)CSSC[C@@H]2NC(=O)[C@H](CCCCN)NC(=O)CNC(=O)[C@H](Cc3ccccc3)NC(=O)[C@H](CCCNC(=N)N)NC(=O)[C@H](CCSC)NC(=O)CNC(=O)[C@H](C)NC(=O)[C@H](CCCCN)NC(=O)[C@H](CCCCN)NC(=O)[C@@H]3CSSC[C@@H](C(=O)N[C@H](C(=O)N4CCC[C@H]4C(=O)N[C@@H](CCCCN)C(N)=O)[C@@H](C)O)NC(=O)[C@H](Cc4c[nH]cn4)NC(=O)[C@H](CSSC[C@H](NC(=O)[C@H](CCC(N)=O)NC(=O)[C@H](CCCNC(=N)N)NC(=O)[C@H](CO)NC1=O)C(=O)N[C@@H](CC(C)C)C(=O)N[C@@H](CCC(=O)O)C(=O)N1CCC[C@H]1C(=O)N3)NC(=O)[C@H](CCCCN)NC(=O)CNC(=O)[C@H](CC(N)=O)NC(=O)[C@H](CCSC)NC2=O [OsK1-NH2]	3.5
CC[C@H](C)[C@@H]1NC(=O)[C@H](CCCCN)NC(=O)[C@@H](NC(=O)[C@H](CCCCN)NC(=O)[C@@H](NC(=O)[C@H](CC(N)=O)NC(=O)[C@@H](NC(=O)[C@@H](NC(=O)[C@@H](NC(=O)CN)C(C)C)[C@@H](C)CC)[C@@H](C)CC)C(C)C)CSSC[C@@H]2NC(=O)[C@H](CCCCN)NC(=O)CNC(=O)[C@H](Cc3ccccc3)NC(=O)[C@H](CCCNC(=N)N)NC(=O)[C@H](CCSC)NC(=O)CNC(=O)[C@H](C)NC(=O)[C@H](CC(=O)O)NC(=O)[C@H](CCCCN)NC(=O)[C@@H]3CSSC[C@@H](C(=O)N[C@H](C(=O)N4CCC[C@H]4C(=O)N[C@@H](CCCCN)C(=O)O)[C@@H](C)O)NC(=O)[C@H](Cc4c[nH]cn4)NC(=O)[C@H](CSSC[C@H](NC(=O)[C@H](CCC(N)=O)NC(=O)[C@H](CCCNC(=N)N)NC(=O)[C@H](CO)NC1=O)C(=O)N[C@@H](CC(C)C)C(=O)N[C@@H](CCC(=O)O)C(=O)N1CCC[C@H]1C(=O)N3)NC(=O)[C@H](CCCCN)NC(=O)CNC(=O)[C@H](CC(N)=O)NC(=O)[C@H](CCSC)NC2=O [[D^20]-OsK1] (H-GVIINVKCKISRQCLEPCKDAGMRFGKCMNGKCHCTPK-OH; disulfide 8-28, 14-33, 18-35)	4.5
CC[C@H](C)[C@@H]1NC(=O)[C@H](CCCCN)NC(=O)[C@@H](NC(=O)[C@H](CCCCN)NC(=O)[C@@H](NC(=O)[C@H](CC(N)=O)NC(=O)[C@@H](NC(=O)[C@@H](NC(=O)[C@@H](N)C(C)C)[C@@H](C)CC)[C@@H](C)CC)C(C)C)CSSC[C@@H]2NC(=O)[C@H](CCCCN)NC(=O)CNC(=O)[C@H](Cc3ccccc3)NC(=O)[C@H](CCCNC(=N)N)NC(=O)[C@H](CCSC)NC(=O)CNC(=O)[C@H](C)NC(=O)[C@H](CCCCN)NC(=O)[C@H](CCCCN)NC(=O)[C@@H]3CSSC[C@@H](C(=O)N[C@H](C(=O)N4CCC[C@H]4C(=O)N[C@@H](CCCCN)C(N)=O)[C@@H](C)O)NC(=O)[C@H](Cc4c[nH]cn4)NC(=O)[C@H](CSSC[C@H](NC(=O)[C@H](CCC(N)=O)NC(=O)[C@H](CCCNC(=N)N)NC(=O)[C@H](CO)NC1=O)C(=O)N[C@@H](CC(C)C)C(=O)N[C@@H](CCC(=O)O)C(=O)N1CCC[C@H]1C(=O)N3)NC(=O)[C@H](CCCCN)NC(=O)CNC(=O)[C@H](CC(N)=O)NC(=O)[C@H](CCSC)NC2=O [[Δ^1]-OsK1-NH2] (H-VIINVKCKISRQCLEPCKKAGMRFGKCMNGKCHCTPK-NH2; disulfide 7-27, 13-32, 17-34)	7
CC[C@H](C)[C@@H]1NC(=O)[C@H](CCCCN)NC(=O)[C@@H](NC(=O)[C@@H](N)CCCCN)CSSC[C@@H]2NC(=O)[C@H](CCCCN)NC(=O)CNC(=O)[C@H](Cc3ccccc3)NC(=O)[C@H](CCCNC(=N)N)NC(=O)[C@H](CCSC)NC(=O)CNC(=O)[C@H](C)NC(=O)[C@H](CC(=O)O)NC(=O)[C@H](CCCCN)NC(=O)[C@@H]3CSSC[C@@H](C(=O)N[C@H](C(=O)N4CCC[C@H]4C(=O)N[C@@H](CCCCN)C(=O)O)[C@@H](C)O)NC(=O)[C@H](Cc4c[nH]cn4)NC(=O)[C@H](CSSC[C@H](NC(=O)[C@H](CCC(N)=O)NC(=O)[C@H](CCCNC(=N)N)NC(=O)[C@H](CO)NC1=O)C(=O)N[C@@H](CC(C)C)C(=O)N[C@@H](CCCCN)C(=O)N1CCC[C@H]1C(=O)N3)NC(=O)[C@H](CCCCN)NC(=O)CNC(=O)[C@H](CC(N)=O)NC(=O)[C@H](CCSC)NC2=O (H-KCKISRQCLKPCKDAGMRFGKCMNGKCHCTPK-OH; disulfide 2-22, 8-27, 12-29)	6.5
